This is an account of results in patent US20230265151A1, “GIP/GLP1 CO-AGONIST COMPOUNDS” (priority 2020, published 2023).

Where two headings read alike, the source gives them in different places.

The target in assay [1] is T1, human GIP receptor (hGIPR) (Homo sapiens, UniProt P48546).
T1 construct: expressed in transfected cells; crude membranes
T1 sequence (P48546 22-466): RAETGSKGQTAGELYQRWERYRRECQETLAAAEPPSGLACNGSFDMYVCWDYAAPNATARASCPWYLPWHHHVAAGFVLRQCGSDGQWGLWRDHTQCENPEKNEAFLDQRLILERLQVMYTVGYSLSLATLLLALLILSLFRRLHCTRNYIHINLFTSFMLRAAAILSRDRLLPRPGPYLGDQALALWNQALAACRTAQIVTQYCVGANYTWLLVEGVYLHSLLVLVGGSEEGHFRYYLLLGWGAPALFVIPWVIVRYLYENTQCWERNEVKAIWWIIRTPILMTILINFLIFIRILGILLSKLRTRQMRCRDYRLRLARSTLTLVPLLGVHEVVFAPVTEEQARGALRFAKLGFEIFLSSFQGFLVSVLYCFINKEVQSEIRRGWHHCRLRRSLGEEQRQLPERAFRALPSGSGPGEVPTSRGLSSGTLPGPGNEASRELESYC
The assay can be described thus: [125I]-GIP binding, SPA with membranes of CHO cells expressing hGIPR. The following applies: human GIPR; geometric mean (SEM, n); read-out: Binding Affinity Ki, nM (SEM, n) hGIPR.

Assay [2] addresses T2, hGIPR (Homo sapiens, UniProt P48546).
T2 construct: expressed in transfected cells
T2 sequence (P48546 22-466): T1 sequence (P48546 22-466)
In words: Functional cAMP formation (HTRF) in HEK-293 clonal cells expressing hGIPR, 0.1% bovine casein, without or with 1.0% human serum albumin. The class given is cell-based. To be noted: for Emax: read-out: hGIPR Emax, % ± SEM; for EC50: read-out: hGIPR EC50, nM (SEM, n). An outline of the steps: (§1)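 Cells were stimulated with peptide for 30 min at 37° C, then lysed in buffer carrying cAMP-d2 and anti-cAMP Eu3+-cryptate for a competitive HTRF read after at least 60 min at room temperature. The 665/620 nm ratio was converted to nM cAMP against a standard curve.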

For assay [3], the target named is T3, hGCGR (Homo sapiens, UniProt P47871).
T3 construct: expressed in transfected cells
T3 sequence (P47871 26-477): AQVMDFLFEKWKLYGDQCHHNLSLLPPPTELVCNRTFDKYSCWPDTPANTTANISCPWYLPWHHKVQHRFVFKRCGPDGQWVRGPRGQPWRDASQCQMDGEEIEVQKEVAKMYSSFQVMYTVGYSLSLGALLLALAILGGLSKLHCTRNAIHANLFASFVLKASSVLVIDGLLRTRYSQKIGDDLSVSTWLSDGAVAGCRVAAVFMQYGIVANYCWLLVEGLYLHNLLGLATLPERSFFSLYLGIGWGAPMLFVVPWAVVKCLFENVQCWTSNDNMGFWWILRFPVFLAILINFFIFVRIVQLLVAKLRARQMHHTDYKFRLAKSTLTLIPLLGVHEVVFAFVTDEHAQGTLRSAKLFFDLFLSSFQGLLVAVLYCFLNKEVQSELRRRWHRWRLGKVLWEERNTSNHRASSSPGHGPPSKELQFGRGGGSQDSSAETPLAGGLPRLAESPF
In words: Functional cAMP formation (HTRF) in HEK-293 clonal cells expressing hGCGR, 0.1% bovine casein, without or with 1.0% human serum albumin. To be noted: read-out: hGCGR EC50, nM (SEM, n). The class given is cell-based. An outline of the steps:
as §1
For orientation: cAMP levels reflect the balance of adenylyl cyclase and phosphodiesterase activity.

The target in assay [4] is hGLP-1R (Homo sapiens, UniProt P43220). In words: Functional cAMP formation (HTRF) in HEK-293 clonal cells expressing hGLP-1R, 0.1% bovine casein, without or with 1.0% human serum albumin. The following applies: for Emax: read-out: hGLP-1R Emax, % ± SEM; for EC50: read-out: hGLP-1R EC50, nM (SEM, n). Set-up: expressed in transfected cells. The class given is cell-based. An outline of the steps: as §1
Sequence of hGLP-1R (P43220 24-463): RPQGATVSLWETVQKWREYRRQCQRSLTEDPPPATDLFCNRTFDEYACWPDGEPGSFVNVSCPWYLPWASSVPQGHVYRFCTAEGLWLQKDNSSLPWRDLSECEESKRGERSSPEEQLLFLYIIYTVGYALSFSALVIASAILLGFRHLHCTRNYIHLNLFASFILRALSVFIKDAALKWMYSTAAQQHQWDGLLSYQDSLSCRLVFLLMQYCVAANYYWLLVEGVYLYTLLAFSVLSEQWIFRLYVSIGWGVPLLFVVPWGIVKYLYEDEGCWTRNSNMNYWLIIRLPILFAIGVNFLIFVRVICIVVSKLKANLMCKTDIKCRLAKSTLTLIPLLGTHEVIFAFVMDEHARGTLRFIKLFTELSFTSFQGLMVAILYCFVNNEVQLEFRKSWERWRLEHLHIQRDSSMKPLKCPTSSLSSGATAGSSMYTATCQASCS

Where [5] appears, read: HEK293, cAMP, 37° C., 0.1% bovine casein and 1.0% human serum albumin, percent of maximal response to GIP(1-42)NH2.
Where [6] appears, read: HEK293, cAMP, 37° C., 0.1% bovine casein, percent of maximal response to GIP(1-42)NH2, arithmetic mean.
Where [7] appears, read: cAMP, 37° C., 0.1% bovine casein (no human serum albumin), geometric mean.
Setting [8] is: cAMP, 37° C., 0.1% bovine casein and 1.0% human serum albumin, geometric mean (SEM, n).
Where [9] appears, read: 0.1% bovine casein and 1.0% human serum albumin, 37° C., geometric mean.
[10] abbreviates: HEK293, 0.1% bovine casein and 1.0% human serum albumin, 37° C., percent of maximal response to GIP(1-42)NH2.
The mark [11] stands for this setting: cAMP, incubated at 37° C., 0.1% bovine casein (no human serum albumin), geometric mean.

Usually Ki stands for a dissociation constant, usually derived from enzyme kinetics or from competition with a known ligand. As a reminder, the Emax is the size of the effect at its maximum, as opposed to the concentration needed. By EC50 is commonly meant the concentration that produces a half-maximal response. `CCCC[C@H](NC(=O)[C@H](CC(=O)O)NC(=O)[C@H](CO)NC(=O)[C@@H](NC(=O)[C@](C)(Cc1ccccc1F)NC(=O)[C@@H](NC(=O)CNC(=O)[C@H](CCC(=O)O)NC(=O)C(C)(C)NC(=O)[C@@H](N)Cc1ccc(O)cc1)[C@@H](C)O)[C@@H](C)O)C(=O)N[C@@H](CO)C(=O)N[C@H](C(=O)N[C@@](C)(CC(C)C)C(=O)N[C@@H](CC(C)C)C(=O)N[C@@H](CC(=O)O)C(=O)N[C@@H](CCCN)C(=O)N[C@@H](CCC(N)=O)C(=O)N[C@@H](C)C(=O)N[C@@H](CCC(N)=O)C(=O)NC(C)(C)C(=O)N[C@@H](CCCN)C(=O)N[C@@H](Cc1ccccc1)C(=O)N[C@H](C(=O)N[C@@H](CCCCNC(=O)COCCOCCNC(=O)COCCOCCNC(=O)CC[C@H](NC(=O)CCCCCCCCCCCCC(=O)O)C(=O)O)C(=O)N[C@@](C)(Cc1ccc(O)cc1)C(=O)N[C@@H](CC(C)C)C(=O)N[C@H](C(=O)N[C@@H](CCCCNC(=O)COCCOCCNC(=O)COCCOCCNC(=O)CC[C@H](NC(=O)CCCCCCCCCCCCC(=O)O)C(=O)O)C(=O)NCC(=O)NCC(=O)N1CCC[C@H]1C(=O)N[C@@H](CO)C(=O)N[C@@H](CO)C(=O)NCC(=O)N[C@@H](C)C(=O)N1CCC[C@H]1C(=O)N1CCC[C@H]1C(=O)N1CCC[C@H]1C(=O)N[C@@H](CO)C(N)=O)[C@@H](C)CC)[C@@H](C)CC)[C@@H](C)CC` [Example 490]: the inhibitory constant (Ki) in assay [1] stood at 0.0288 nM. The Emax is 97.1% in assay [2] (setting [5]); 110% in assay [2] (setting [6]); 115% in assay [4] (HEK293, cAMP, 37° C., 0.1% bovine casein, percent of maximal response to GLP-1(7-36)NH2, arithmetic mean). Further, the EC50 in assay [2] (setting [7]) is 0.0122 nM; in assay [2] (setting [8]), 0.976 nM; in assay [3] (setting [7]), over 9950 nM; in assay [3] (setting [8]) it was over 9950 nM; in assay [4] (setting [7]), 0.143 nM.
Take `CCCCCCCCCCCCCCCC(=O)N[C@@H](CCC(=O)NCCOCCOCC(=O)NCCOCCOCC(=O)NCCCC[C@H](NC(=O)CNC(=O)CNC(=O)[C@H](CCCCNC(=O)COCCOCCNC(=O)COCCOCCNC(=O)CC[C@H](NC(=O)CCCCCCCCCCCCCCC)C(=O)O)NC(=O)[C@@H](NC(=O)[C@H](CC(C)C)NC(=O)[C@](C)(Cc1ccc(O)cc1)NC(=O)[C@@H](CCC(=O)O)NC(=O)[C@@H](NC(=O)[C@H](Cc1ccccc1)NC(=O)[C@H](CCC(=O)O)NC(=O)C(C)(C)NC(=O)[C@H](CCC(N)=O)NC(=O)[C@H](C)NC(=O)[C@@H](NC(=O)[C@H](CCCN)NC(=O)[C@H](CC(=O)O)NC(=O)[C@H](CC(C)C)NC(=O)[C@](C)(CC(C)C)NC(=O)[C@@H](NC(=O)[C@H](CO)NC(=O)[C@H](Cc1ccncc1)NC(=O)[C@H](CC(=O)O)NC(=O)[C@H](CO)NC(=O)[C@@H](NC(=O)[C@](C)(Cc1ccccc1F)NC(=O)[C@@H](NC(=O)CNC(=O)[C@H](CCC(=O)O)NC(=O)C(C)(C)NC(=O)[C@@H](N)Cc1ccc(O)cc1)[C@@H](C)O)[C@@H](C)O)[C@@H](C)CC)[C@@H](C)CC)[C@@H](C)CC)[C@@H](C)CC)C(=O)N[C@@H](CO)C(=O)N[C@@H](CO)C(=O)NCC(=O)N[C@@H](C)C(=O)N1CCC[C@H]1C(=O)N1CCC[C@H]1C(=O)N1CCC[C@H]1C(=O)N[C@@H](CO)C(N)=O)C(=O)O` [Example 26]: the Ki in assay [1] is 0.0863 nM. Moreover, the EC50 in assay [2] (setting [9]) was 1.2 nM; in assay [2] (setting [11]), 0.0218 nM; in assay [3] (setting [9]), over 9950 nM; in assay [3] (setting [11]), over 9950 nM; in assay [4] (setting [9]) it was 3.93 nM. Also, the Emax in assay [2] (setting [10]) was found to be 95.4 ± 2.54%.
Take `CCCC[C@H](NC(=O)[C@H](CC(=O)O)NC(=O)[C@H](CO)NC(=O)[C@@H](NC(=O)[C@](C)(Cc1ccccc1F)NC(=O)[C@@H](NC(=O)CNC(=O)[C@H](CCC(=O)O)NC(=O)C(C)(C)NC(=O)[C@@H](N)Cc1ccc(O)cc1)[C@@H](C)O)[C@@H](C)O)C(=O)N[C@@H](CO)C(=O)N[C@H](C(=O)N[C@@](C)(CC(C)C)C(=O)N[C@@H](CC(C)C)C(=O)N[C@@H](CC(=O)O)C(=O)N[C@@H](CCCN)C(=O)N[C@@H](CCCCNC(=O)COCCOCCNC(=O)COCCOCCNC(=O)CC[C@H](NC(=O)CCCCCCCCCCCCC(=O)O)C(=O)O)C(=O)N[C@@H](C)C(=O)N[C@@H](CCC(N)=O)C(=O)NC(C)(C)C(=O)N[C@@H](CCC(=O)O)C(=O)N[C@@H](Cc1ccccc1)C(=O)N[C@H](C(=O)N[C@H](CCC(=O)O)C(=O)N[C@@](C)(Cc1ccc(O)cc1)C(=O)N[C@@H](CC(C)C)C(=O)N[C@H](C(=O)N[C@@H](CCC(=O)O)C(=O)NCC(=O)NCC(=O)N[C@@H](CCCCNC(=O)COCCOCCNC(=O)COCCOCCNC(=O)CC[C@H](NC(=O)CCCCCCCCCCCCC(=O)O)C(=O)O)C(=O)N[C@@H](CO)C(=O)N[C@@H](CO)C(=O)NCC(=O)N[C@@H](C)C(=O)N1CCC[C@H]1C(=O)N1CCC[C@H]1C(=O)N1CCC[C@H]1C(=O)N[C@@H](CO)C(N)=O)[C@@H](C)CC)[C@@H](C)CC)[C@@H](C)CC` [Example 60]: the inhibition constant (Ki) in assay [1] was found to be 0.11 nM. Besides, the EC50 was 1.2 nM in assay [2] (setting [9]), over 9950 nM in assay [3] (setting [9]), over 9950 nM in assay [3] (setting [11]) and 0.19 nM in assay [4] (setting [11]). Besides, the maximal effect (Emax) in assay [2] (setting [10]) is 89.4 ± 4.57%; in assay [2] (HEK293, percent of maximal response to GIP(1-42)NH2, 37° C., 0.1% bovine casein, arithmetic mean), 94 ± 6.07%; in assay [4] (HEK293, 0.1% bovine casein and 1.0% human serum albumin, 37° C., percent of maximal response to GLP-1(7-36)NH2) it was 111 ± 3.97%; in assay [4] (HEK293, percent of maximal response to GLP-1(7-36)NH2, 37° C., 0.1% bovine casein, arithmetic mean), 97.2 ± 4.28%.
Regarding `CCCCCCCCCCCC(=O)N[C@@H](CCC(=O)NCCOCCOCC(=O)NCCOCCOCC(=O)NCCCC[C@H](NC(=O)[C@H](CO)NC(=O)[C@@H]1CCCN1C(=O)[C@@H]1CCCN1C(=O)[C@@H]1CCCN1C(=O)[C@H](C)NC(=O)CNC(=O)[C@H](CO)NC(=O)[C@H](CO)NC(=O)[C@@H]1CCCN1C(=O)CNC(=O)CNC(=O)[C@H](CCC(=O)O)NC(=O)[C@@H](NC(=O)[C@H](CC(C)C)NC(=O)[C@](C)(Cc1ccc(O)cc1)NC(=O)[C@@H](CCC(=O)O)NC(=O)[C@@H](NC(=O)[C@H](Cc1ccccc1)NC(=O)[C@H](CCCN)NC(=O)C(C)(C)NC(=O)[C@H](CCC(N)=O)NC(=O)[C@H](C)NC(=O)[C@H](CCCCNC(=O)COCCOCCNC(=O)COCCOCCNC(=O)CC[C@H](NC(=O)CCCCCCCCCCC)C(=O)O)NC(=O)[C@H](CCCN)NC(=O)[C@H](CC(=O)O)NC(=O)[C@H](CC(C)C)NC(=O)[C@](C)(CC(C)C)NC(=O)[C@@H](NC(=O)C(C)(C)NC(=O)[C@H](Cc1ccncc1)NC(=O)[C@H](CC(=O)O)NC(=O)[C@H](CO)NC(=O)[C@@H](NC(=O)[C@](C)(Cc1ccccc1F)NC(=O)[C@@H](NC(=O)CNC(=O)[C@H](CCC(=O)O)NC(=O)C(C)(C)NC(=O)[C@@H](N)Cc1ccc(O)cc1)[C@@H](C)O)[C@@H](C)O)[C@@H](C)CC)[C@@H](C)CC)[C@@H](C)CC)C(N)=O)C(=O)O` [Example 418], the Ki in assay [1] is 0.0174 nM. Besides, the Emax in assay [2] (setting [5]) was 87.2%; in assay [2] (setting [6]), 91%; in assay [4] (HEK293, cAMP, 37° C., 0.1% bovine casein and 1.0% human serum albumin, percent of maximal response to GLP-1(7-36)NH2) it was 98.8%. The EC50 in assay [2] (setting [7]) is 0.00599 nM; in assay [2] (setting [8]), 0.126 nM; in assay [3] (setting [7]), over 9950 nM; in assay [3] (setting [8]), over 9950 nM; in assay [4] (setting [7]), 0.0603 nM; in assay [4] (setting [8]) it was 1.72 nM.
